“Also recorded” adds a separate entry of the source.
How the values were obtained:
[1] = system: TMD8 cells (Human diffuse large B lymphoma cells); assay: CellTiter-Glo TMD8 inhibitory activity; assay type: cell-based; settings: cultured in vitro
Text: CellTiter-Glo kit was used to test the TMD8 inhibitory activity of compounds of examples on Human diffuse large B lymphoma cells cultured in vitro. IC50 values were shown below.

[2] = molecular target: Full-length human BTK (C481S) (Homo sapiens (Human), UniProt Q06187, C481S); assay: BTK (C481S) inhibitory activity, Reaction Biology Corporation kinase assay; settings: read-out: IC50(nM) BTK(C481S); (b) ATP concentration 100 μM
[3] = system: subcutaneous xenograft TMD8 tumor; assay: Subcutaneous transplantation tumor model of TMD8 cells in NOD/SCID mice; assay type: in vivo; settings: for inhibitory effect on growth of subcutaneous transplanted TMD8 tumor / anti-tumor effect: orally 30 mg/kg once a day or 10→5 mg/kg twice a day; for tumor growth inhibition rate (TGI): after 22 days of administration
Protocol: In the subcutaneous transplantation tumor model of human diffuse large B lymphoma TMD8 cells in NOD/SCID mice, the inhibitory effect of example 1 on tumor growth was tested. Tumor growth and animal body weight were presented in FIG. 1 and FIG. 2 as followed. […] Therefore, the dose was adjusted to 5 mg/kg and continued to administrate for 14 days.

Full-length human BTK [4] = molecular target: Full-length human BTK (Homo sapiens (Human), UniProt Q06187); assay: BTK inhibitory activity, Reaction Biology Corporation kinase assay
Full-length human BTK [5] = assay: as above; settings: read-out: IC50 of standard; standard in BTK/BTK (C481S) assay, ATP 10 μM

Full-length human BTK (Homo sapiens (Human), UniProt Q06187), sequence (Q06187 whole entry): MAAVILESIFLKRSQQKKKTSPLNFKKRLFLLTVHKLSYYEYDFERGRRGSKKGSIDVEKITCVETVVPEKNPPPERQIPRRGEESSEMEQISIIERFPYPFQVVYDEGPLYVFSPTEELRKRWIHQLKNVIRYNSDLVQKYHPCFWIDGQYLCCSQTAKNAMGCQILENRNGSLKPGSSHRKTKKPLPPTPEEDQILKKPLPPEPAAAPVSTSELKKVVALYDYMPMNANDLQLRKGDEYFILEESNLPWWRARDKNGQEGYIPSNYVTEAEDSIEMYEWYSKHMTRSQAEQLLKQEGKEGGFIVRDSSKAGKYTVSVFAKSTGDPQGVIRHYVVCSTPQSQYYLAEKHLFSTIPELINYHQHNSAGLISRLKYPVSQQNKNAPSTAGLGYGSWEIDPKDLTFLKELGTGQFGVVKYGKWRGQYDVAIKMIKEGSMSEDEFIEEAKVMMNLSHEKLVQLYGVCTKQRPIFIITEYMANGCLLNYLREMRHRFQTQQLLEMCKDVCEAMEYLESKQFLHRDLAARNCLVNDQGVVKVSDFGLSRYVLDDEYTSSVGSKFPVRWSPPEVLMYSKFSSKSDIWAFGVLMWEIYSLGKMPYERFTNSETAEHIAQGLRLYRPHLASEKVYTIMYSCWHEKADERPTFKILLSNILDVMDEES
Full-length human BTK (C481S), sequence (Q06187 whole entry C481S): as the sequence (Q06187 whole entry) above, with C481S counted along it

SMILES	IC50 [1] [nM]	IC50 [2] [nM]	animal body weight ([3]; 10 mg/kg orally twice a day for 8 successive days)	effect on animal body weight ([3]; 30 mg/kg orally once a day)	influence on the body weight of animals ([3]; during administration, treatment groups overall)	inhibitory effect on growth of subcutaneous transplanted TMD8 tumor / anti-tumor effect [3]	inhibitory effect on growth of subcutaneous transplanted TMD8 tumor / anti-tumor effect ([3]; listed as example 1)	tumor growth inhibition rate (TGI) ([3]; orally once a day at 30 mg/kg) [%]	tumor growth inhibition rate (TGI) ([3]; orally twice a day at 10→5 mg/kg) [%]	inhibition at 0.005 µM (Full-length human BTK [4]; read-out: BTK inhibitory rate(%)) [%]	IC50 (Full-length human BTK [4]; read-out: IC50(nM) BTK, (b) ATP concentration 100 μM) [nM]	IC50 (Full-length human BTK [5]) [nM]
Nc1ncnc2c1c(-c1ccc(Oc3ccccc3)cc1)nn2[C@@H]1CCC[C@@H](O)C1 [Example 1, (1R,3R)-3-(4-amino-3-(4-phenoxyphenyl)-1h-pyrazole[3,4-d]pyrimidin-1-yl)cyclohex-1-ol]	20	3.4	decreased slightly	no significant effect	without showing obvious influence	obvious inhibitory effect	significant anti-tumor effect; also recorded: significantly inhibited the growth of tumor	49.6	52.7	60	8.1	–
CN[C@@H]1C[C@H]2O[C@@](C)([C@@H]1OC)n1c3ccccc3c3c4c(c5c6ccccc6n2c5c31)C(=O)NC4 [Starsporin, reference compound]	–	–	–	–	–	–	–	–	–	–	–	3.94
